Patent US11091442B2, “Fluorosulfonyl-containing compound, intermediate thereof, preparation method therefor and use thereof” (SHANGHAI INSTITUTE OF ORGANIC CHEMISTRY, CHINESE ACADEMY OF …, priority 2017, dated 2021)
Several values for one entry are separate records, joined by “and”; a condition that tells them apart may be missing. Equal entries are not always repeated.

Key:
[1] = Stability in deionized water, 19F-NMR tracking of the S-F signal; format: physicochemical; details: for S-F signal of the solution: deionized water, room temperature
Description: This embodiment studies the stability of 1-(fluorosulfonyl)-2,3-dimethyl-1H-imidazolium trifluoromethanesulfonate in deionized water
The experimental method: 1-(fluorosulfonyl)-2,3-dimethyl-1H-imidazolium trifluoromethanesulfonate ([…], 0.1 mmol) was dissolved in deionized water (1 mL) at room temperature to prepare a solution, and the pH value of the obtained solution was measured to be pH=1, ^19F-NMR tracked the change of the S—F signal of the solution, and the results are shown in Table 3.

[2] = Thermal stability on a melting point meter; format: physicochemical; details: temperature set at 129-240° C., heating gradient 1.0° C./min
Description: This embodiment studies the melting range and thermal stability of 1-(fluorosulfonyl)-2,3-dimethyl-1H-imidazolium trifluoromethanesulfonate
Experimental method: On a melting point meter, the temperature was set at 30-70° C. and the heating gradient at 0.5° C./min, the melting range of the substance of the embodiment was measured to be 62.1-64.2° C.: the temperature was set at 129-240° C. and the heating gradient at 1.0° C./min, the substance slowly bubbled at 135.2° C., and then turned from colorless to pale yellow at 176.5° C., turned to yellow at 185.6° C., turned to dark yellow at 189.9° C., and finally turned to black at 199.4° C.

[3] = Stability in different humidity environments (sealed plastic bottles, 231 days of observation and testing); format: physicochemical; details: after 231 days
Description: This embodiment studies the stability of 1-(fluorosulfonyl)-2,3-dimethyl-1H-imidazolium trifluoromethanesulfonate in different humidity environments.
Experimental method: 1-(fluorosulfonyl)-2,3-dimethyl-1H-imidazolium trifluoromethanesulfonate was sampled (4.521 g, 4.298 g, 4.273 g) and placed into three plastic bottles (20 mL), which were then sealed with parafilm membrane. The three plastic bottles were placed on an experimental table (22° C.), in a refrigerator (4° C.) or in a dryer (22° C.).

With `CC(=O)c1c(OS(=O)(=O)F)ccc2c(C)cc(=O)oc12` as the molecule, how does the melting point read?
Its melting point is 163.8 to 165.2 °C.

Which melting point does the source give for `CC(C)c1n(S(=O)(=O)F)cc[n+]1C.O=S(=O)([O-])C(F)(F)F` here?
The melting point was 77 to 80 °C.

With `O=S(=O)(F)NCCc1ccc(O)cc1` as the molecule, how does the melting point read?
The melting point was 90 to 92 °C.

For `O=S(=O)(F)N1CCC(c2ccccc2)CC1`, which melting point is on record?
The melting point was 83 to 84 °C.

Which melting point does the source give for `COc1cc(C=O)ccc1OS(=O)(=O)F` here?
The melting point was 50.8 to 51.8 °C.

Which melting point does the source give for `O=[N+]([O-])c1ccc(OS(=O)(=O)F)c2ncccc12` here?
The melting point was 86.9 to 87.9 °C.

With `COc1cc(C(=O)NC2CCCN(S(=O)(=O)F)C2)cc(OC)c1OC` (centres unmarked) as the molecule, how does the melting point read?
Its melting point is 184 to 186 °C.

For `O=C(NC1CCN(S(=O)(=O)F)CC1)c1ccccc1`, which melting point is on record?
The melting point was 205 to 207 °C.

Which melting point does the source give for `CC(=O)Nc1ccc(OS(=O)(=O)F)cc1` here?
Its melting point is 150.3 to 152 °C.

For `CN1CN(S(=O)(=O)F)c2ccccc21.O=S(=O)(O)C(F)(F)F`, which melting point is on record?
The melting point was 121 to 125 °C.

With `O=S(=O)(F)N[C@@H]1CCC[C@H]1OCc1ccccc1` as the molecule, how does the melting point read?
Its melting point is 76 to 78 °C.

With `O=c1ccc2cc(OS(=O)(=O)F)ccc2o1` as the molecule, how does the melting point read?
Its melting point is 85.3 to 87.9 °C.

Which melting point does the source give for `Cc1ccc2c(Cl)cc(Cl)c(OS(=O)(=O)F)c2n1` here?
Its melting point is 64.6 to 66.2 °C.

For `O=C(/C=C/c1ccc(S(=O)(=O)F)cc1)c1ccccc1`, which melting point is on record?
Its melting point is 92.8 to 94.2 °C.

For `CC(C)(C)OC(=O)[C@H](NS(=O)(=O)F)c1ccccc1`, which melting point is on record?
Its melting point is 81 to 84 °C.

With `COc1cc(/C=C/c2ccc(OS(=O)(=O)F)cc2)cc(OC)c1` as the molecule, how does the melting point read?
The melting point was 80.1 to 81.1 °C.

What does the source list for `Cc1n(S(=O)(=O)F)cc[n+]1C.O=S(=O)([O-])C(F)(F)F` [Compound 4, 1-(fluorosulfonyl)-2,3-dimethyl-1H-imidazolium trifluoromethanesulfonate]?
pH value of the obtained solution ([1]; 36 mg, 0.1 mmol dissolved in deionized water (1 mL) at room temperature): 1; S-F signal of the solution ([1]; standing time 12 min): 0.77; S-F signal of the solution ([1]; standing time 30 min): 0.58; S-F signal of the solution ([1]; standing time 58 min): 0.35; S-F signal of the solution ([1]; standing time 2 h): 0.11; S-F signal of the solution ([1]; standing time 2 h 46 min): 0.05; temperature at which the substance slowly bubbled [2]: 135.2 °C; temperature at which the substance turned from colorless to pale yellow [2]: 176.5 °C; temperature at which the substance turned to black [2]: 199.4 °C; temperature at which the substance turned to dark yellow [2]: 189.9 °C; temperature at which the substance turned to yellow [2]: 185.6 °C; melting point: 58 to 60 °C; S-F signal in 19F NMR spectrum decreased by ([3]; placed in the dryer (22° C.)): by 4%; S-F signal in 19F NMR spectrum decreased by ([3]; placed in the refrigerator (4° C.)): decreased by 1%; S-F signal in 19F NMR spectrum decreased by ([3]; placed on the experimental table (22° C.)): by 25%

For `Cc1ccc(C2CCCN2S(=O)(=O)F)cc1` (centres unmarked), which melting point is on record?
Its melting point is 53 to 57 °C.

For `O=S(=O)(F)N1CCN(S(=O)(=O)F)CC1`, which melting point is on record?
Its melting point is 246 to 248 °C.

With `O=S(=O)(F)N1CCC(Cc2ccccc2)CC1` as the molecule, how does the melting point read?
The melting point was 54 to 58 °C and 58 to 61 °C and 57 to 61 °C.

Which melting point does the source give for `O=S(=O)(F)c1ccc(-c2ccc(S(=O)(=O)F)cc2)cc1` here?
The melting point was 95.3 to 96.6 °C.
